10 molecules from US20180116993A1, “MODULATORS OF FARNESOID X RECEPTOR AND METHODS FOR THE USE THEREOF” (XIAMEN UNIVERSITY, priority 2015, published 2018) can be followed below.

Where two headings read alike, the source gives them in different places.

For experiment [1], the target named is T1, FXR ligand binding domain (LBD) (Homo sapiens, UniProt Q96RI1).
T1 construct: made in house
T1 sequence (Q96RI1 262-486 limits assumed): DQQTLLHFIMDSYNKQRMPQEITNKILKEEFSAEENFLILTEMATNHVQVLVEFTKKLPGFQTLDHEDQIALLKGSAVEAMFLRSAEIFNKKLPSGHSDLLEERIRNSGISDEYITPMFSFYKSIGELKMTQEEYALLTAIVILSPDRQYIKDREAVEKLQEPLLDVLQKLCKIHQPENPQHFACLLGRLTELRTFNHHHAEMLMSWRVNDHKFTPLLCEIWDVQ
Description: AlphaScreen assay: FXR LBD recruitment of coregulator peptide motifs (SRC2-3, SRC1-2). It counts as biochemical.

Experiment [2] addresses T2, full-length FXR (Homo sapiens, UniProt Q96RI1).
T2 construct: The cells were co-transfected with plasmids encoding full-length FXR and the cognate luciferase reporter EcRE-Luc; expressed in transfected cells; host or cells: COS-7
T2 sequence (Q96RI1 1-486): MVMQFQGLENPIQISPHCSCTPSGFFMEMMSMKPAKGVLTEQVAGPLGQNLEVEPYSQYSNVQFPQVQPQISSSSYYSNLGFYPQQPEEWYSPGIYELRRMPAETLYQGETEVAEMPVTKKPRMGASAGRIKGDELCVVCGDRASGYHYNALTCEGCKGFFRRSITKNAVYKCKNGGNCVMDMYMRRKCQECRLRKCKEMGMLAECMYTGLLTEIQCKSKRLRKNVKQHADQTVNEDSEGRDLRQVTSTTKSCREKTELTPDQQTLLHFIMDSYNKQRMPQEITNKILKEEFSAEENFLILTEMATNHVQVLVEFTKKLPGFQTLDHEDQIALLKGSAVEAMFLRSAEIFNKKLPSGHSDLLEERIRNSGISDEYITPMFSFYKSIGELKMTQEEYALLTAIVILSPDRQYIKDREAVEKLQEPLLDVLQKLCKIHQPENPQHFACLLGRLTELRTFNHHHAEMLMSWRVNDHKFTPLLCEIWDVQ
Description: Cell-based FXR transactivation, EcRE luciferase reporter in COS-7 cells. The following applies: for Cell-based FXR transactivation Fold changes by 5 μM compound: positive: induction, minus: repression. A digest of the protocol: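 COS-7 cells were transiently cotransfected with full-length FXR, EcRE-Luc reporter and a renilla control. Ligands were added 5 h after transfection, and cells were harvested 24 h later. Firefly luciferase was normalized to renilla in a dual-luciferase read-out.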
In general terms: Reporter assays use an easily measured gene product as a stand-in for the process of interest.

Experiment [3] has as its system human colorectal adenocarcinoma HCT15 cells. Description: MTT cell viability assay, HCT15. It counts as cell-based. Conditions: 48 h, read-out: Cell viability as a percentage of the cells treated with DMSO, HCT15; for viability at 20 µM: HCT-15, 20 uM; for viability at 40 µM: HCT-15, 40 uM. A digest of the protocol:
(§1)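 Cells cultured in DMEM with 10% FBS were treated with compounds at 20 uM or 40 uM. Viability was read by MTT and expressed as a percentage of DMSO-treated cells.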
(Tetrazolium assays rely on reduction of a dye to a coloured formazan, in cell work by metabolically active cells.)

Experiment [4] deals with RA-resistant human colon cancer HCT116 cells. Description: MTT cell viability assay, HCT116. The format is cell-based. Conditions: 48 h, read-out: Cell viability as a percentage of the cells treated with DMSO, HCT116; for viability at 20 µM: HCT-116, 20 uM; for viability at 40 µM: HCT-116, 40 uM. A digest of the protocol:
as §1

For experiment [5], the system named is human hepatoma HepG2 cells. Description: MTT cell viability assay, HepG2. It counts as cell-based. The following applies: 48 h, read-out: Cell viability as a percentage of the cells treated with DMSO, HepG2. A digest of the protocol:
as §1

Experiment [6] deals with human cervical carcinoma Hela cells. Put plainly: MTT cell viability assay, Hela. It counts as cell-based. Conditions: 48 h, read-out: Cell viability as a percentage of the cells treated with DMSO, Hela. A digest of the protocol:
as §1

In experiment [7] the test system is human breast cancer MCF7 cells. Put plainly: MTT cell viability assay, MCF-7. It counts as cell-based. Conditions: 48 h, read-out: Cell viability as a percentage of the cells treated with DMSO, MCF-7. A digest of the protocol:
as §1

[8] abbreviates: SRC1-2 peptide, Table 2, read-out: EC50 (μM) of FXR binding by AlphaScreen assay recruit SRC1-2.
Setting [9] is: SRC2-3 peptide, Table 2, read-out: EC50 (μM) of FXR binding by AlphaScreen assay recruit SRC2-3.
Where [10] appears, read: EcRE luciferase reporter, Table 2.

For `COc1cc(C(=O)OC2CCCCCCC2)ccc1O` [XD-18, cyclooctyl 4-hydroxy-3-methoxybenzoate], the concentration giving a half-maximal response (EC50) (as a rule, the concentration giving half of the maximal effect) in experiment [1] (setting [8]) was less than 1 µM; in experiment [1] (setting [9]) it was less than 1 µM; in experiment [2] (setting [10]), less than 1000 nM. The “Cell-based FXR transactivation Fold changes by 5 μM compound” value in experiment [2] (5 μM compound, Table 2) worked out at 3. In addition, the viability (commonly the share of living cells, or the viability signal relative to a control) at 20 µM is 91 ± 4% in experiment [3]; 92 ± 1% in experiment [4]; 96 ± 3% in experiment [5]; 100 ± 3% in experiment [6]; 98 ± 10% in experiment [7]. Further, the viability at 40 µM stood at 40 ± 4% in experiment [3]; 30 ± 2% in experiment [4]; 55 ± 1% in experiment [5]; 71 ± 3% in experiment [6]; 32% in experiment [7].
`Nc1ccc(C(=O)OC2CCCCCCC2)cc1` [XD-16, cyclooctyl 4-aminobenzoate]: the values for the EC50 in experiment [1] (setting [8]), in experiment [1] (setting [9]) and in experiment [2] (setting [10]) were less than 1 µM, less than 1 µM and less than 1000 nM, respectively. Besides, in experiment [2] (5 μM compound, Table 2), the “Cell-based FXR transactivation Fold changes by 5 μM compound” value is on record as 5.
Consider `COc1cc(C(=O)OC2C/C(C)=C/CC/C(C)=C/[C@@H](O)[C@H]2C(C)C)ccc1O` (some centres unmarked) [Tschimganidine], for which the EC50 in experiment [1] (SRC1-2 peptide, Table 1, read-out: EC50 (μM) of FXR binding by AlphaScreen assay recruit SRC1-2) is less than 1 µM; in experiment [1] (SRC2-3 peptide, Table 1, read-out: EC50 (μM) of FXR binding by AlphaScreen assay recruit SRC2-3), less than 1 µM; in experiment [2] (EcRE luciferase reporter, Table 1), less than 1000 nM. Besides, the fold induction – broadly, the ratio of treated to control signal – at 5 µM in experiment [2] (5 μM compound, EcRE luciferase reporter, Table 1) is more than 10. Besides, the viability at 20 µM in experiment [3] was found to be 85 ± 9%; in experiment [4], 95 ± 4%; in experiment [5], 94%; in experiment [6], 96%; in experiment [7], 100 ± 4%. Also, the viability at 40 µM in experiment [3] amounted to 60 ± 10%; in experiment [4], 40 ± 7%; in experiment [5] it was 48 ± 4%; in experiment [6] it was 30 ± 5%; in experiment [7], 85%.
With `CC1(C)C2CCC1(C)C(OC(=O)c1ccc(=O)[nH]c1)C2` (centres unmarked) [XD-8, 1,7,7-trimethyl-bicyclo[2.2.1]-heptan-2-yl 6-oxo-1,6-dihydropyridine-3-carboxylate], the EC50 lay within 1 to 10 µM in experiment [1] (setting [8]), 1 to 10 µM in experiment [1] (setting [9]) and 1000 to 10000 nM in experiment [2] (setting [10]). In addition, the “Cell-based FXR transactivation Fold changes by 5 μM compound” value in experiment [2] (5 μM compound, Table 2) is 4. In addition, the viability at 20 µM in experiment [3] was 78 ± 4%; in experiment [4], 92 ± 7%; in experiment [5] it was 90%; in experiment [6], 97%; in experiment [7], 94 ± 10%. In addition, the viability at 40 µM in experiment [3] came out at 60 ± 4%; in experiment [4], 60 ± 3%; in experiment [5], 64 ± 3%; in experiment [6] it was 71 ± 3%; in experiment [7], 75%.
Take `CC1(C)C2CCC1(C)C(OC(=O)c1ccc(=O)oc1)C2` (centres unmarked) [XD-9, 1,7,7-trimethyl-bicyclo[2.2.1]-heptan-2-yl 6-oxo-6H-pyran-3-carboxylate]: the EC50 in experiment [1] (setting [8]) fell in the range of 1 to 10 µM; in experiment [1] (setting [9]), 1 to 10 µM; in experiment [2] (setting [10]), 1000 to 10000 nM. Besides, in experiment [2] (5 μM compound, Table 2), the “Cell-based FXR transactivation Fold changes by 5 μM compound” value was 4. The viability at 20 µM in experiment [3] was 49 ± 2%; in experiment [4], 58 ± 2%; in experiment [5], 90 ± 3%; in experiment [6], 80 ± 3%; in experiment [7], 72 ± 6%. The viability at 40 µM in experiment [3] turned out to be 42 ± 3%; in experiment [4], 25 ± 2%; in experiment [5], 64 ± 3%; in experiment [6], 59 ± 5%; in experiment [7], 31%.
As to `CC1(C)C2CCC1(C)C(OC(=O)c1ccc(F)cc1)C2` (centres unmarked) [XD-0, 1,7,7-trimethyl-bicyclo[2.2.1]-heptan-2-yl 4-fluorobenzoate], the concentration giving a half-maximal response (EC50) in experiment [1] (setting [8]) lay within 1 to 10 µM; in experiment [1] (setting [9]), 1 to 10 µM; in experiment [2] (setting [10]), 1000 to 10000 nM. In experiment [2] (5 μM compound, Table 2), the “Cell-based FXR transactivation Fold changes by 5 μM compound” value is 5. The viability at 20 µM in experiment [3] was determined as 81 ± 4%; in experiment [4], 95 ± 4%; in experiment [5], 81 ± 2%; in experiment [6], 90%; in experiment [7], 100 ± 2%. The viability at 40 µM stood at 56 ± 2% in experiment [3]; 62 ± 6% in experiment [4]; 76 ± 7% in experiment [5]; 71 ± 3% in experiment [6]; 85% in experiment [7].
Consider `Cc1cc(C(=O)OC2CCC3CCCCC3C2)ccc1[N+](=O)[O-]` (centres unmarked) [XD-35, decahydro-naphthalen-2-yl 3-methyl-4-nitro-benzoate], for which the half-maximal effective concentration (EC50) fell in the range of 1 to 10 µM in experiment [1] (setting [9]) and 1000 to 10000 nM in experiment [2] (setting [10]). Further, the “Cell-based FXR transactivation Fold changes by 5 μM compound” value in experiment [2] (5 μM compound, Table 2) came to 2. In addition, the viability at 20 µM turned out to be 100 ± 2% in experiment [3]; 95 ± 2% in experiment [4]; 100 ± 2% in experiment [5]; 94 ± 2% in experiment [6]; 100 ± 2% in experiment [7]. The viability at 40 µM in experiment [3] turned out to be 93 ± 2%; in experiment [4], 93 ± 2%; in experiment [5] it was 93 ± 2%; in experiment [6], 93 ± 2%; in experiment [7] it was 100 ± 2%.
As for `CC1(C)C2CCC1(C)C(OC(=O)c1ccc(F)c(Br)c1)C2` (centres unmarked) [XD-13, 1,7,7-trimethyl-bicyclo[2.2.1]-heptan-2-yl 3-bromo-4-fluoro-benzoate], the values for the EC50 in experiment [1] (setting [8]), in experiment [1] (setting [9]) and in experiment [2] (setting [10]) were less than 1 µM, less than 1 µM and less than 1000 nM, respectively. For the same molecule, in experiment [2] (5 μM compound, Table 2), the “Cell-based FXR transactivation Fold changes by 5 μM compound” value is 4. Also, the viability at 20 µM in experiment [3] stood at 100 ± 2%; in experiment [4], 100 ± 2%; in experiment [5], 92 ± 3%; in experiment [6], 100 ± 3%; in experiment [7] it was 100 ± 7%. Moreover, the viability at 40 µM came out at 71 ± 3% in experiment [3]; 70 ± 5% in experiment [4]; 86 ± 1% in experiment [5]; 96 ± 1% in experiment [6]; 100 ± 1% in experiment [7].
With `Nc1ccc(C(=O)OC2CCCCCC2)cc1` [XD-12, cycloheptyl 4-aminobenzoate], the EC50 in experiment [1] (setting [8]) and in experiment [1] (setting [9]) was more than 10 µM throughout. The “Cell-based FXR transactivation Fold changes by 5 μM compound” value in experiment [2] (5 μM compound, Table 2) worked out at 1.5. Moreover, the viability at 20 µM in experiment [3] is 65 ± 4%; in experiment [4], 77 ± 3%; in experiment [5] it was 100 ± 2%; in experiment [6] it was 100 ± 2%; in experiment [7], 100 ± 4%. For the same molecule, the viability at 40 µM was found to be 54 ± 4% in experiment [3]; 65 ± 3% in experiment [4]; 97 ± 3% in experiment [5]; 90 ± 5% in experiment [6]; 82% in experiment [7].
As to `Cc1cc(C(=O)OC2CC3CCC2(C)C3(C)C)ccc1N` (centres unmarked) [XD-4, 1,7,7-trimethyl-bicyclo[2.2.1]-heptan-2-yl 4-amino-3-methylbenzoate], the EC50 in experiment [1] (setting [8]) was less than 1 µM; in experiment [1] (setting [9]), less than 1 µM; in experiment [2] (setting [10]), less than 1000 nM. Besides, the “Cell-based FXR transactivation Fold changes by 5 μM compound” value in experiment [2] (5 μM compound, Table 2) was more than 10. The viability at 20 µM in experiment [3] turned out to be 79 ± 2%; in experiment [4], 81 ± 2%; in experiment [5], 90 ± 5%; in experiment [6], 95 ± 4%; in experiment [7], 100 ± 9%. The viability at 40 µM in experiment [3] turned out to be 41 ± 3%; in experiment [4], 27 ± 1%; in experiment [5], 42 ± 1%; in experiment [6] it was 36 ± 2%; in experiment [7], 23%.
